Data from US10206399B2, “Herbicidal composition comprising uracil compound as active ingredient” (Dongbu Farm Hannong Co., Ltd., priority 2012, dated 2019).
Where two headings read alike, the source gives them in different places.

Columns and labels:
Abutilon theophrasti = assay: whole plant or invertebrate
Text: (§1) X is % damage by uracil compound (a) of formula 1 at the rate of application of p kg/ha; Y is % damage by conventional herbicidal compound (b) at the rate of application of q kg/ha; and E is the expected damage caused by compounds (a) and (b) at a rate of application of p and q kg/ha.
(§2) The expected activity for a given combination of two herbicides can be calculated using equation 1 above.

Aeschynomene indica = assay: whole plant or invertebrate
Text: as §1, §2

Xanthium spinosum = assay: whole plant or invertebrate
Text: as §1, §2

Echinochloa crus = details: for plant mortality, measured value: Echinochloa crus
Text: as §1, §2

Digitaria sanguinalis = details: for plant mortality, measured value: Digitaria sanguinalis
Text: as §1, §2

[1] = read-out: plant mortality, measured value, 125 g/ha
[2] = read-out: plant mortality, measured value, 250 g/ha
[3] = read-out: plant mortality, measured value, 500 g/ha
[4] = read-out: plant mortality, measured value, 175 g/ha
[5] = read-out: plant mortality, measured value, 350 g/ha
[6] = read-out: plant mortality, measured value, 700 g/ha
[7] = read-out: plant mortality, measured value, 25 g/ha
[8] = read-out: plant mortality, measured value, 50 g/ha
[9] = read-out: plant mortality, measured value, 100 g/ha

CC(C)N1C(=O)c2ccccc2NS1(=O)=O [Bentazone]
pest or weed control at 125 g/ha (Abutilon theophrasti; [1]): 9% | pest or weed control at 250 g/ha (Abutilon theophrasti; [2]): 22% | pest or weed control at 500 g/ha (Abutilon theophrasti; [3]): 49% | pest or weed control at 125 g/ha (Aeschynomene indica; [1]): 10% | pest or weed control at 250 g/ha (Aeschynomene indica; [2]): 22% | pest or weed control at 500 g/ha (Aeschynomene indica; [3]): 52% | pest or weed control at 125 g/ha (Xanthium spinosum; [1]): 8% | pest or weed control at 250 g/ha (Xanthium spinosum; [2]): 18% | pest or weed control at 500 g/ha (Xanthium spinosum; [3]): 45% | plant mortality, measured value (Echinochloa crus; 125 g/ha): 0 | plant mortality, measured value (Echinochloa crus; 250 g/ha): 0 | plant mortality, measured value (Echinochloa crus; 500 g/ha): 0 | plant mortality, measured value (Digitaria sanguinalis; 125 g/ha): 0 | plant mortality, measured value (Digitaria sanguinalis; 250 g/ha): 0 | plant mortality, measured value (Digitaria sanguinalis; 500 g/ha): 0

COc1cc(OC)nc(Oc2cccc(Oc3nc(OC)cc(OC)n3)c2C(=O)O)n1 [Bispyribac-sodium]
pest or weed control at 15 g/ha (Abutilon theophrasti; read-out: Data (measured value) Abutilon theophrasti, 15 g/ha): 31% | pest or weed control at 30 g/ha (Abutilon theophrasti; read-out: Data (measured value) Abutilon theophrasti, 30 g/ha): 62% | pest or weed control at 15 g/ha (Aeschynomene indica; read-out: Data (measured value) Aeschynomene indica, 15 g/ha): 23% | pest or weed control at 30 g/ha (Aeschynomene indica; read-out: Data (measured value) Aeschynomene indica, 30 g/ha): 49% | pest or weed control at 15 g/ha (Xanthium spinosum; read-out: Data (measured value) Xanthium spinosum, 15 g/ha): 27% | pest or weed control at 30 g/ha (Xanthium spinosum; read-out: Data (measured value) Xanthium spinosum, 30 g/ha): 58% | Data (measured value) Echinochloa crus (Echinochloa crus; 15 g/ha): 23 | Data (measured value) Echinochloa crus (Echinochloa crus; 30 g/ha): 45 | Data (measured value) Digitaria sanguinalis (Digitaria sanguinalis; 15 g/ha): 20 | Data (measured value) Digitaria sanguinalis (Digitaria sanguinalis; 30 g/ha): 47

Nc1cnn(-c2ccccc2)c(=O)c1Cl [Chloridazon]
pest or weed control at 175 g/ha (Abutilon theophrasti; [4]): 14% | pest or weed control at 350 g/ha (Abutilon theophrasti; [5]): 30% | pest or weed control at 700 g/ha (Abutilon theophrasti; [6]): 64% | pest or weed control at 175 g/ha (Aeschynomene indica; [4]): 11% | pest or weed control at 350 g/ha (Aeschynomene indica; [5]): 29% | pest or weed control at 700 g/ha (Aeschynomene indica; [6]): 57% | pest or weed control at 175 g/ha (Xanthium spinosum; [4]): 7% | pest or weed control at 350 g/ha (Xanthium spinosum; [5]): 22% | pest or weed control at 700 g/ha (Xanthium spinosum; [6]): 46% | plant mortality, measured value (Echinochloa crus; 175 g/ha): 13 | plant mortality, measured value (Echinochloa crus; 350 g/ha): 27 | plant mortality, measured value (Echinochloa crus; 700 g/ha): 54 | plant mortality, measured value (Digitaria sanguinalis; 175 g/ha): 14 | plant mortality, measured value (Digitaria sanguinalis; 350 g/ha): 28 | plant mortality, measured value (Digitaria sanguinalis; 700 g/ha): 63

CCSC(C)CC1CC(=O)C(/C(CC)=N/OC/C=C/Cl)=C(O)C1 (stereo not shown) [Clethodim]
pest or weed control at 25 g/ha (Abutilon theophrasti; read-out: Data (measured value) Abutilon theophrasti, 25 g/ha): 0% | pest or weed control at 50 g/ha (Abutilon theophrasti; read-out: Data (measured value) Abutilon theophrasti, 50 g/ha): 0% | pest or weed control at 100 g/ha (Abutilon theophrasti; read-out: Data (measured value) Abutilon theophrasti, 100 g/ha): 0% | pest or weed control at 25 g/ha (Abutilon theophrasti; [7]): 0% | pest or weed control at 50 g/ha (Abutilon theophrasti; [8]): 0% | pest or weed control at 100 g/ha (Abutilon theophrasti; [9]): 0% | pest or weed control at 25 g/ha (Aeschynomene indica; read-out: Data (measured value) Aeschynomene indica, 25 g/ha): 0% | pest or weed control at 50 g/ha (Aeschynomene indica; read-out: Data (measured value) Aeschynomene indica, 50 g/ha): 0% | pest or weed control at 100 g/ha (Aeschynomene indica; read-out: Data (measured value) Aeschynomene indica, 100 g/ha): 0% | pest or weed control at 25 g/ha (Aeschynomene indica; [7]): 0% | pest or weed control at 50 g/ha (Aeschynomene indica; [8]): 0% | pest or weed control at 100 g/ha (Aeschynomene indica; [9]): 0% | pest or weed control at 25 g/ha (Xanthium spinosum; read-out: Data (measured value) Xanthium spinosum, 25 g/ha): 0% | pest or weed control at 50 g/ha (Xanthium spinosum; read-out: Data (measured value) Xanthium spinosum, 50 g/ha): 0% | pest or weed control at 100 g/ha (Xanthium spinosum; read-out: Data (measured value) Xanthium spinosum, 100 g/ha): 0% | pest or weed control at 25 g/ha (Xanthium spinosum; [7]): 0% | pest or weed control at 50 g/ha (Xanthium spinosum; [8]): 0% | pest or weed control at 100 g/ha (Xanthium spinosum; [9]): 0% | Data (measured value) Echinochloa crus (Echinochloa crus; 25 g/ha): 11 | plant mortality, measured value (Echinochloa crus; 25 g/ha): 11 | Data (measured value) Echinochloa crus (Echinochloa crus; 50 g/ha): 31 | plant mortality, measured value (Echinochloa crus; 50 g/ha): 31 | Data (measured value) Echinochloa crus (Echinochloa crus; 100 g/ha): 65 | plant mortality, measured value (Echinochloa crus; 100 g/ha): 65 | Data (measured value) Digitaria sanguinalis (Digitaria sanguinalis; 25 g/ha): 6 | plant mortality, measured value (Digitaria sanguinalis; 25 g/ha): 6 | Data (measured value) Digitaria sanguinalis (Digitaria sanguinalis; 50 g/ha): 19 | plant mortality, measured value (Digitaria sanguinalis; 50 g/ha): 19 | Data (measured value) Digitaria sanguinalis (Digitaria sanguinalis; 100 g/ha): 45 | plant mortality, measured value (Digitaria sanguinalis; 100 g/ha): 45
